Experimental data reported in patent US20240109855A1, “ANTI-QUORUM SENSING, ANTI-BIOFILM, AND INFLAMMATION ATTENUATING COMPOUNDS, COMPOSITIONS, AND METHODS OF USING SAME” (priority 2021, published 2024).
Entries after “also recorded” stand apart in the source; their conditions may differ.

Legend:
[1] = test system: QS genes lasR, lasI, rhlR and rhlI; assay: RT-qPCR of P. aeruginosa (PA01) QS genes; format: cell-based; details: PA01 co-incubated seven hours
Procedure: (§1) FIGS. 13A-13C include vertical bar graphs showing the dose response inhibition of QS by PL-18. Bioluminescence indicator bacteria containing the P. aeruginosa reporter genes rhlRI (13A) and lasRI (13B) were used. The reporter bacteria were incubated with and range of PL-18 concentrations or DMSO, together with (+AI) or without (−AI) the proper auto-inducer. Bioluminescence was recorded at 15 min intervals for 10 hrs at 37° C. The maximum signal in each group was normalized to the inducer's bioluminescence maximum signal with 0.5% DMSO. Mean±SD, One-way ANOVA followed by Dunett's multiple comparisons test was performed (p-value ***≤0.0002). N=9 (triplicate samples in three independent experiments). (13C) RT-qPCR of P. aeruginosa (PA01) QS genes. PA01 was co-incubated with two doses of PL-18 for seven hours, lysed and total RNA was extracted and converted to cDNA followed by target genes qPCR amplification. N≥16, Mean±SD. Two-way ANOVA, 95% confidence interval.
(§2) The inhibition of rhlR-rhlI system was slightly better than the inhibition of lasR-lasI. […] The relative transcription levels of QS genes lasR, lasI, rhlR and rhlI, was determined by RT-qPCR.

rhamnolipids = assay: Rhamnolipids secretion by P. aeruginosa; format: cell-based; details: cell-free culture medium, spectrometry
Procedure: (§3) FIGS. 14A-14B include vertical bar graphs showing that PL-18 inhibition effects on secretion of virulence factors by P. aeruginosa. (14A) Pyocyanin was extracted in the chloroform-HCl method and measured in a plate-reader at 380 nm. (14B) Determination of rhamnolipids content was measured at 570 nm of the cell-free supernatant after adjustment to pH-2. All results were normalized and compere to the control group-DMSO 0.16%. Mean±SD, One-way ANOVA followed by Dunett's multiple comparisons test (p-values *≤0.0332, ***≤0.0002). N=9 (in three independent experiments).
(§4) To test whether PL-18 inhibits virulence effectors secreted by P. aeruginosa, the relative abundance of the virulence factors pyocyanin and rhamnolipids in the bacterial cell-free culture medium was determined by spectrometry.

pyocyanin = assay: Pyocyanin secretion by P. aeruginosa; format: cell-based; details: cell-free culture medium, spectrometry
Procedure: as §3, §4

P. aeruginosa = assay: Toxicity to P. aeruginosa (CFU scoring, kinetic O.D.600nm); format: cell-based; details: at the concentrations tested, data not shown
Procedure: The inventors also determined the toxicity of PL-18 to P. aeruginosa. Viability was tested by scoring CFUs of PL-18 treated P. aeruginosa cultures and bacterial growth was determined by incubation with PL-18 for kinetic O.D.600nm measurements.

[2] = test system: Chromobacterium violaceum (CV026); assay: Quorum sensing inhibition test with bio-reporter CV026 (TLC overlay); format: cell-based; for Degree of quorum sensing inhibition (QSI), CV026: key: −: no inhibition; +: low inhibition; ++: medium inhibition; +++: strong inhibition
How it was run: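 Compounds (40 mM in acetonitrile, 20 μl) were spotted on TLC and overlaid with soft agar reporter cultures, incubated overnight at 30 °C. CV026 was in LB with 500 nM 3-oxo-C6 (purple pigment), and KYC55 was in AT medium with 5 nM 3-oxo-C8 and 60 μg/ml X-gal (blue). Inhibition zone diameter was measured.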

rhlR-rhlI system = assay: Bioluminescence QS reporter bacteria, rhlRI; format: cell-based, P. aeruginosa; details: Pseudomonas aeruginosa
Procedure: as §1, §2

NF-kB = assay: NF-kB-luciferase reporter gene assay in L428 cells; format: cell-based, human; details: Table 6 summary; note: key: +: active; −: inactive
Procedure: FIG. 7 includes a vertical bar graph showing a dose response of NF-kB activation according to an NF-kB reporter gene luciferase assay. L428 cells were stably transfected with the NF-kB luciferase reporter gene. The cells were incubated with the compounds at different concentrations for 2 hours. […] The results represent the percentage of NF-kB activation as compared to vehicle (DMSO) treated cells. All samples were normalized to protein concentration. Mean+SD, Two-way ANOVA and Tukey's multiple comparison test. 95% confidence interval (p-values *≤0.0332, **≤0.0021, ***≤0.0002).
L428 cells stable transfectants with the luciferase NF-kB-Luc reporter gene were generated previously described (Ozer et al., 2009), and were maintained in 500 μg/ml of G418 (G418 disulfate salt, Sigma-Aldrich). The cells (5×10^5 /well in triplicate) were incubated for 2 hrs. in 1 ml of medium containing the solvent (DMSO) or different concentrations of the molecules tested. Cells were then harvested, lysed, and monitored by a luciferase reporter assay kit (Promega) according to the manufacturer's instructions. Measurements were carried out using a luminometer (Promega, GLOMAX™ 20/20 Luminometer). Data were normalized to the protein concentration in each lysate as measured by the Bradford method (BioRad) and normalized to the control. Experiments were repeated at least three times.

lasR-lasI = assay: Bioluminescence QS reporter bacteria, lasRI; format: cell-based, P. aeruginosa; details: Pseudomonas aeruginosa
Procedure: as §1, §2

COc1cc(/C=C/C(=O)N2CCC=CC2=O)cc(O)c1O [PL-18, Dihydroxy piperlongumine]
Relative transcription levels of QS genes lasR, lasI, rhlR and rhlI [1]: strongly decreased | Inhibition of rhamnolipids secretion (rhamnolipids): inhibit both virulence factors in a dose dependent manner; also recorded: effectively attenuate | Inhibition of pyocyanin secretion (pyocyanin): inhibit both virulence factors in a dose dependent manner; also recorded: effectively attenuate | Effect on P. aeruginosa growth (O.D.600nm) (P. aeruginosa): did not affect P. aeruginosa growth | Toxicity to P. aeruginosa (viability, CFUs) (P. aeruginosa): non-toxic | Degree of quorum sensing inhibition (QSI), CV026 ([2]; Table 2, piperlongumine derivatives): ++ | QSI activity against CV026, in words ([2]; running text): moderate activity | IC50 (rhlR-rhlI system; read-out: IC50, rhlR-rhlI): 18 µM | inhibition at 160 µM (rhlR-rhlI system; read-out: Inhibition of rhlR-rhlI): 85.6% | Anti-inflammatory (NF-kB): + | IC50 (lasR-lasI; read-out: IC50, lasR-lasI): 22 µM | inhibition at 160 µM (lasR-lasI; read-out: lasR-lasI inhibition): 76.8%
